Measurements from patent US20240174690A1, “ANNULATED 2-AMINO-3-CYANO THIOPHENES AND DERIVATIVES FOR THE TREATMENT OF CANCER” (BOEHRINGER INGELHEIM INTERNATIONAL GMBH, priority 2021, published 2024).

Key:
[1] = target: KRAS (G12D)::SOS1 (Homo sapiens (Human), UniProt P01116, G12D); assay: KRAS::SOS1 AlphaScreen binding assay, KRAS G12D
Summary of the method: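 Compounds (up to 100 μM, eleven fivefold dilutions in duplicate) were incubated 30 min with KRAS 1-169 (10 nM, or 7.5 nM for G12C), GST-SOS1 564-1049 (5 nM for G12D/G12C, 10 nM for others) and 10 μM GDP in PBS buffer with BSA and Tween. Donor/acceptor beads were then added for 60 min at room temperature, and IC50 came from a 4-parameter fit of the AlphaScreen signal.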

[2] = system: LOVO cells; assay: LOVO CTG proliferation assay (120 h) (CRC, G13D); format: cell-based; settings: CTG 120 h
Summary of the method: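 IC50 comes from a four-parameter fit of CellTiter-Glo viability, expressed as RLU relative to DMSO wells. Compound exposure lasted 120 h in LOVO cells seeded the day before at 1000 cells/well in DMEM with 10% fetal calf serum.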

[3] = system: SAS cells; assay: SAS CTG proliferation assay (120 h) (HNSCC, wt amplified); format: cell-based
Summary of the method: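 Viability measured by CellTiter-Glo luminescence, normalized to DMSO wells, after 120 h compound treatment of SAS cells. Cells grown in DMEM:F12 plus 10% FCS at 300 cells per well, dosed the day after seeding. Four-parameter fit gives IC50.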

KRAS (G12D)::SOS1, sequence (P01116 other isoform, or with tags, fused parts or gaps G12D): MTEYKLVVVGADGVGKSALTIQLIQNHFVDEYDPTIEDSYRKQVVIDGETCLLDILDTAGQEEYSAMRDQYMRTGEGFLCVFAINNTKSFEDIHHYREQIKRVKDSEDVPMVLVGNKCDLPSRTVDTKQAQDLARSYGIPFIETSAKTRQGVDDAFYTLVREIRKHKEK

Row | Compound | IC50 [1] [µM] | IC50 ([2]; Homo sapiens) [µM] | IC50 [3] [µM] | IC50 [2] [µM]
1 | C[C@H]1CN(C)CCCN1c1nc(-c2onc3c2CCC[C@@]32CCCc3sc(N)c(C#N)c32)cc(N2CCN(C)C3(CC3)C2)n1 [I-42] | 0.035 |  |  | 
2 | C[C@H](Oc1cc(-n2ccc(C(=O)O)n2)nc(-c2noc3c2CCC[C@@]32CCCc3sc(N)c(C#N)c32)n1)[C@@H]1CCCN1C [II-24] | 0.003 | 7.42 | 15.6 | 
3 | C[C@H](Oc1cc(N2CCN(C)C3(COC3)C2)nc(-c2onc3c2CCC[C@@]32CCCc3sc(N)c(C#N)c32)n1)[C@@H]1C[C@@H](F)CN1C [I-37] | 0.001 | 0.165 | 0.412 | 
4 | C[C@H](Oc1cc(N2CCNC3(COC3)C2)nc(-c2onc3c2CCC[C@@]32CCCc3sc(N)c(C#N)c32)n1)[C@@H]1CCCN1C [I-4] | 0.001 | 0.205 | 0.395 | 
5 | C[C@H](Oc1cc(-c2ccn(C)n2)nc(-c2onc3c2CCC[C@@]32CCCc3sc(N)c(C#N)c32)n1)[C@@H]1CCCN1C [I-21] | 0.004 |  | 0.04 | 0.128
6 | Cc1ccc(-c2cc(O[C@@H](C)[C@@H]3CCCN3C)nc(-c3onc4c3CCC[C@@]43CCCc4sc(N)c(C#N)c43)n2)cn1 [I-28] | 0.01 | 0.39 | 0.934 | 
7 | C[C@H](Oc1cc(C2CCCO2)nc(-c2noc3c2CCC[C@@]32CCCc3sc(N)c(C#N)c32)n1)[C@@H]1CCCN1C (stereo partly shown) [II-44] | 0.002 | 0.092 | 6 | 
8 | C[C@H](Oc1cc(N2CCN(C)C3(CCC3)C2)nc(-c2onc3c2CCC[C@@]32CCCc3sc(N)c(C#N)c32)n1)[C@@H]1CCCN1C [I-44] | 0.002 | 0.925 | 1.2 | 
9 | C[C@H](Oc1nc(-c2noc3c2CCC[C@@]32CCCc3sc(N)c(C#N)c32)cc(N2C[C@H](C)N[C@@H](C)C2)n1)[C@@H]1CCCN1C [II-46] | 0.001 | 1.22 | 0.399 | 
10 | CO[C@H]1CCN(C)[C@@H]1[C@H](C)Oc1cc(N2CCNC3(CC3)C2)nc(-c2onc3c2CCC[C@@]32CCCc3sc(N)c(C#N)c32)n1 [I-49] | 0.001 | 0.223 | 0.905 | 
11 | C[C@H](Oc1cc(-n2ccsc2=O)nc(-c2noc3c2CCC[C@@]32CCCc3sc(N)c(C#N)c32)n1)[C@@H]1CCCN1C [II-135] |  | 0.051 | 0.069 | 
12 | C[C@H](Oc1cc(-c2ccn(C)n2)nc(-c2noc3c2CCC[C@@]32CCCc3sc(N)c(C#N)c32)n1)[C@@H]1C[C@@H](F)CN1C [II-27] | 0.008 | 0.345 | 0.151 | 
13 | CO[C@H]1CCN(C)[C@@H]1[C@H](C)Oc1cc(-n2ccc(C(=O)N[C@@H]3CCOC3)n2)nc(-c2onc3c2CCC[C@@]32CCCc3sc(N)c(C#N)c32)n1 [I-53] | 0.001 | 0.029 | 0.013 | 
14 | C[C@H](Oc1cc(N2CCNC3(CCC3)C2)nc(-c2onc3c2CCC[C@@]32CCCc3sc(N)c(C#N)c32)n1)[C@@H]1CCCN1C [I-3] | 0.001 | 2.16 | 4.89 | 
15 | C[C@H](Oc1cc(-c2cnn(C)n2)nc(-c2noc3c2CCC[C@@]32CCCc3sc(N)c(C#N)c32)n1)[C@@H]1C[C@@H](F)CN1C [II-28] | 0.022 | 0.72 | 0.203 | 
16 | C[C@H](Oc1cc(-n2ccc(C(=O)N(C)C3COC3)n2)nc(-c2onc3c2CCC[C@@]32CCCc3sc(N)c(C#N)c32)n1)[C@@H]1CCCN1C [I-60] | 0.001 | 0.049 | 0.04 | 
17 | C[C@H](Oc1cc(N2CC[C@H](N3CCCCC3)C2)nc(-c2noc3c2CCC[C@@]32CCCc3sc(N)c(C#N)c32)n1)[C@@H]1CCCN1C [II-12] | 0.001 | 0.401 | 1.93 | 
18 | C[C@H](Oc1cc(-c2ccn(C[C@@H](C)O)n2)nc(-c2onc3c2CCC[C@@]32CCCc3sc(N)c(C#N)c32)n1)[C@@H]1CCCN1C [I-30] | 0.002 | 0.066 | 0.05 | 
19 | C[C@H](Oc1cc(-c2cnsc2)nc(-c2onc3c2CCC[C@@]32CCCc3sc(N)c(C#N)c32)n1)[C@@H]1CCCN1C [I-27] | 0.003 | 0.265 | 0.109 | 
20 | C[C@H](Oc1cc([C@H]2CCN(C)C2)nc(-c2noc3c2CCC[C@@]32CCCc3sc(N)c(C#N)c32)n1)[C@@H]1CCCN1C [II-38] | 0.001 | 0.074 | 0.047 | 
21 | C[C@H](Oc1cc(-c2ccc(N)nc2)nc(-c2onc3c2CCC[C@@]32CCCc3sc(N)c(C#N)c32)n1)[C@@H]1CCCN1C [I-25] | 0.005 | 1.06 | 0.285 | 
22 | C[C@H](Oc1cc(N2CCNC3(CC3)C2)nc(-c2onc3c2CCC[C@@]32CCCc3sc(N)c(C#N)c32)n1)[C@@H]1C[C@@H](F)CN1C [I-45] | 0.001 | 0.315 | 1.19 | 

Row | Compound | IC50 [1] [µM] | IC50 ([2]; Homo sapiens) [µM] | IC50 [3] [µM] | IC50 [2] [µM]
23 | C[C@H](Oc1cc(N2C[C@@H](N(C)C)[C@@H](O)C2)nc(-c2noc3c2CCC[C@@]32CCCc3sc(N)c(C#N)c32)n1)[C@@H]1CCCN1C [II-10] | 0.002 | 0.972 | 3.54 | 
24 | COCCNC(=O)c1ccn(-c2cc(O[C@@H](C)[C@@H]3CCCN3C)nc(-c3onc4c3CCC[C@@]43CCCc4sc(N)c(C#N)c43)n2)n1 [I-58] | 0.001 | 0.029 | 0.045 | 
25 | C[C@H](Oc1cc(N2CCC(N(C)C)CC2)nc(-c2noc3c2CCC[C@@]32CCCc3sc(N)c(C#N)c32)n1)[C@@H]1CCCN1C [II-48] | 0.001 | 0.736 | 3.88 | 
26 | C[C@H](Oc1cc(-n2ccc(C(=O)NC3COC3)n2)nc(-c2noc3c2CCC[C@@]32CCCc3sc(N)c(C#N)c32)n1)[C@@H]1CCCN1C [II-25] | 0.002 | 0.063 | 0.009 | 
27 | C[C@H](Oc1cc(-n2nccn2)nc(-c2onc3c2CCC[C@@]32CCCc3sc(N)c(C#N)c32)n1)[C@@H]1CCCN1C [I-29] | 0.006 | 1.65 | 0.097 | 
28 | C[C@H]1CN(C)CCCN1c1cc(N2CC[C@H](N(C)C)C2)nc(-c2noc3c2CCC[C@@]32CCCc3sc(N)c(C#N)c32)n1 [II-16] | 0.001 | 1.34 | 3.87 | 
29 | CO[C@@H]1C[C@@H]([C@H](C)Oc2cc(-c3ccn(C)n3)nc(-c3onc4c3CCC[C@@]43CCCc4sc(N)c(C#N)c43)n2)N(C)C1 [I-23] | 0.007 | 0.079 | 0.024 | 
30 | C[C@H](Oc1cc(N2CCN(C)C3(CC3)C2)nc(-c2onc3c2CCC[C@@]32CCCc3sc(N)c(C#N)c32)n1)[C@@H]1CCCN1C [I-41] | 0.001 | 0.304 | 4.19 | 
31 | [2H]C([2H])([2H])N1C[C@H](F)C[C@H]1[C@H](C)Oc1cc(N2CCN(C)C3(CC3)C2)nc(-c2noc3c2CCC[C@@]32CCCc3sc(N)c(C#N)c32)n1 [II-209] |  | 0.493 | 0.737 | 
32 | C[C@H](Oc1cc(-n2ccc(C(=O)N[C@@H]3CCOC3)n2)nc(-c2onc3c2CCC[C@@]32CCCc3sc(N)c(C#N)c32)n1)[C@@H]1CCCN1C [I-56] | 0.002 | 0.023 | 0.025 | 
33 | C[C@H](Oc1cc(-c2ccn([C@H]3CCCOC3)n2)nc(-c2noc3c2CCC[C@@]32CCCc3sc(N)c(C#N)c32)n1)[C@@H]1CCCN1C [II-42] | 0.002 | 0.149 | 0.264 | 
34 | C[C@H](Oc1cc(N2CCNC3(COC3)C2)nc(-c2noc3c2CCC[C@@]32CCCc3sc(N)c(C#N)c32)n1)[C@@H]1CCCN1C [II-31] | 0.001 | 0.182 | 0.208 | 
35 | C[C@H](Oc1cc(-c2ccn(C[C@@H]3CCCO3)n2)nc(-c2noc3c2CCC[C@@]32CCCc3sc(N)c(C#N)c32)n1)[C@@H]1CCCN1C [II-43] | 0.002 | 0.12 | 0.024 | 
36 | C[C@H](Oc1cc(N2CC(N(C)C)C2)nc(-c2noc3c2CCC[C@@]32CCCc3sc(N)c(C#N)c32)n1)[C@@H]1CCCN1C [II-7] | 0.001 | 0.835 | 1.19 | 
37 | C[C@H](Oc1nc(-c2onc3c2CCC[C@@]32CCCc3sc(N)c(C#N)c32)cc(N2CCN(C)C3(CC3)C2)n1)[C@@H]1CCCN1C [I-40] | 0.006 |  |  | 
38 | C[C@H](NC(=O)c1ccn(-c2cc(O[C@@H](C)[C@@H]3CCCN3C)nc(-c3onc4c3CCC[C@@]43CCCc4sc(N)c(C#N)c43)n2)n1)c1ccccn1 [I-59] | 0.001 | 0.022 | 0.015 | 
39 | C[C@H](Oc1cc(N2CCNC(C)(C)C2)nc(-c2noc3c2CCC[C@@]32CCCc3sc(N)c(C#N)c32)n1)[C@@H]1CCCN1C [II-32] | 0.001 | 8.32 | 8.31 | 
40 | C[C@H](Oc1nc(-c2onc3c2CCC[C@@]32CCCc3sc(N)c(C#N)c32)cc(N2CCNC3(CC3)C2)n1)[C@@H]1CCCN1C [I-2] | 0.002 |  |  | 
41 | C[C@H](O)Cn1ccc(-c2cc(O[C@@H](C)[C@@H]3CCCN3C)nc(-c3onc4c3CCC[C@@]43CCCc4sc(N)c(C#N)c43)n2)n1 [I-31] | 0.003 |  | 0.057 | 
42 | [2H]C([2H])([2H])N1C[C@H](F)C[C@H]1[C@H](C)Oc1cc(N2CCNC3(CC3)C2)nc(-c2noc3c2CCC[C@@]32CCCc3sc(N)c(C#N)c32)n1 [II-208] |  | 0.334 | 0.718 | 
43 | C[C@H](Oc1cc(-n2ccc(C(=O)N[C@H]3CCOC3)n2)nc(-c2onc3c2CCC[C@@]32CCCc3sc(N)c(C#N)c32)n1)[C@@H]1CCCN1C [I-57] | 0.002 | 0.008 |  | 
